Target: DYRK1A (Homo sapiens (Human), UniProt Q13627)
Test: DYRK1A activity Tau assay: pSer396 Tau in SH-SY5Y cells by ELISA / western blot
Assay type: cell-based
Details: overnight (16-18 h) exposure
Description: In another example, in vitro assays for DYRK1A biological activity may be used, e.g. regulation of microtubule-associated protein tau (MAPT/Tau) phosphorylation in neuronal cell line such as the human SH-SY5Y neuroblastoma cell line. Assays for DYRK1a-regulated level of phosphorylation can include monitoring levels of basal pSer396 Tau, which can be measured, for example, by serial dilutions of a candidate inhibitor composition using a ten micromolar top concentration and detected by ELISA or Western Blotting. An exemplary assay for DYRK-1a-regulated phosphorylation uses the SH-SY5Y cells cultured in a 96 well plate format for a period of time sufficient to stabilize microtubules and Tau phosphorylation, usually at least 2 days, then treated with a 1/3 serial dilution of compounds overnight and lysed. The cell lysate is resolved by SDS PAGE, then transferred to nitrocellulose and probed with an antibody specific for pSer396 Tau.
In a further example, the activity of a candidate compound can be measured by ELISA by adding the lysate mentioned above onto total Tau-coated plates and detected with a specific pSer396 antibody.

Row | Compound | EC50 [nM]
1 | O=C(NC1CCOCC1)c1n[nH]c2ccc(-c3cccc(F)c3)cc12 [Compound 13, 5-(3-Fluorophenyl)-N-(tetrahydro-2H-pyran-4-yl)-1H-indazole-3-carboxamide] | 332
2 | O=C(NC1CCCC1)c1n[nH]c2ccc(-c3cncc(N4CCCC4)c3)cc12 [Compound 181, N-Cyclopentyl-5-(5-(pyrrolidin-1-yl)pyridin-3-yl)-1H-indazole-3-carboxamide] | 47
3 | CC(C)NC(=O)c1n[nH]c2ccc(-c3cncc(CN4CCCCC4)c3)cc12 [Compound 131, N-Isopropyl-5-(5-(piperidin-1-ylmethyl)pyridin-3-yl)-1H-indazole-3-carboxamide] | 10
4 | CC(C)N1CCC(NC(=O)c2n[nH]c3cc(Cl)c(-c4cccnc4)cc23)CC1 [Compound 1304, 6-Chloro-N-(1-isopropylpiperidin-4-yl)-5-(pyridin-3-yl)-1H-indazole-3-carboxamide] | 96
5 | CCC(CC)NC(=O)c1n[nH]c2ccc(-c3cncc(N4CCCC4)c3)cc12 [Compound 1215, N-(Pentan-3-yl)-5-(5-(pyrrolidin-1-yl)pyridin-3-yl)-1H-indazole-3-carboxamide] | 199
6 | CC(C)NC(=O)c1n[nH]c2ccc(-c3cncc(Cl)c3)cc12 [Compound 1247, 5-(5-Chloropyridin-3-yl)-N-isopropyl-1H-indazole-3-carboxamide] | 53
7 | CC(C)NC(=O)c1n[nH]c2cc(F)c(-c3cncc(F)c3)cc12 [Compound 1251, 6-Fluoro-5-(5-fluoropyridin-3-yl)-N-isopropyl-1H-indazole-3-carboxamide] | 45
8 | O=C(Nc1ncc(F)cc1F)c1n[nH]c2ccc(-c3cccnc3)cc12 [Compound 46, N-(3,5-Difluoropyridin-2-yl)-5-(pyridin-3-yl)-1H-indazole-3-carboxamide] | 4
9 | CC(C)CN1CCC(NC(=O)c2n[nH]c3cc(F)c(-c4cccnc4)cc23)CC1 [Compound 1308, 6-Fluoro-N-(1-isobutylpiperidin-4-yl)-5-(pyridin-3-yl)-1H-indazole-3-carboxamide] | 17
10 | O=C(NC1CC1)c1n[nH]c2ccc(-c3cncc(CN4CCCC4)c3)cc12 [Compound 148, N-Cyclopropyl-5-(5-(pyrrolidin-1-ylmethyl)pyridin-3-yl)-1H-indazole-3-carboxamide] | 11

Continued, values first:

Row | EC50 [nM] | Compound
11 | 100 | CC(C)N1CCC(NC(=O)c2n[nH]c3ccc(-c4cccc(F)c4F)cc23)CC1 [Compound 92, 5-(2,3-Difluorophenyl)-N-(1-isopropylpiperidin-4-yl)-1H-indazole-3-carboxamide]
12 | 1 | NC1CN(c2cncc(-c3ccc4[nH]nc(C(=O)Nc5cccnc5)c4c3)n2)C1 [Compound 1317, 5-(6-(3-Aminoazetidin-1-yl)pyrazin-2-yl)-N-(pyridin-3-yl)-1H-indazole-3-carboxamide]
13 | 534 | Cc1ncc(-c2ccc3[nH]nc(C(=O)NC4CCN(CC(C)(C)F)CC4)c3c2)cn1 [Compound 1322, N-(1-(2-Fluoro-2-methylpropyl)piperidin-4-yl)-5-(2-methylpyrimidin-5-yl)-1H-indazole-3-carboxamide]
14 | 31 | CC(F)(F)CN1CCC(NC(=O)c2n[nH]c3ccc(-c4cncc(Cl)c4)cc23)CC1 [Compound 1302, 5-(5-Chloropyridin-3-yl)-N-(1-(2,2-difluoropropyl)piperidin-4-yl)-1H-indazole-3-carboxamide]
15 | 31 | O=C(NC1CCOCC1)c1n[nH]c2ccc(-c3cccnc3)cc12 [Compound 2, 5-(Pyridin-3-yl)-N-(tetrahydro-2H-pyran-4-yl)-1H-indazole-3-carboxamide]
16 | 36 | O=C(NC1CCCCC1)c1n[nH]c2ccc(-c3cc(CN4CCCCC4)cc(F)c3F)cc12 [Compound 217, N-Cyclohexyl-5-(2,3-difluoro-5-(piperidin-1-ylmethyl)phenyl)-1H-indazole-3-carboxamide]
17 | 74 | CCN1CCC(NC(=O)c2n[nH]c3ccc(-c4cncc5ccccc45)cc23)CC1 [Compound 1292, N-(1-Ethylpiperidin-4-yl)-5-(isoquinolin-4-yl)-1H-indazole-3-carboxamide]

Reference: patent US10669240B2, “5-substituted indazole-3-carboxamides and preparation and use thereof” (Samumed, LLC, priority 2014, dated 2020)
